Series [1] deals with motor activity of the rat. Description: Effects on the motor activity of the rat. In kind it is in vivo. To be noted: i.p., first half hour after administration. The procedure: Utilizing these preliminary goods results, the effects of said compounds were studied on the rats motor activity. This experiment permits to obtain a more objective evaluation about the effectiveness of the tested molecules, confirming and specifying the effective dosages, start and duration of the effects.
For these tests too, rats were subdvided into two groups: a control group of rats treated with the solvent and a positive control group consisting of rats treated i.p. with 300 mg/kg/2 ml GHB sodium salt in the aforesaid solvent.
GHB was systematically used as a reference: when administered at the above doses its motor reducing action spans a wide variation range.
Table 3—Effects on the Motor Activity Produced by Some Benzylamido Derivatives of GHB Compared With a 300 mg/kg Dose of GHB (Sedative Dose)
The following table reports data referred to the first half hour after administration. The per cent decreases in motor activity in respect of GHB are reported.

For a further series, the system named is rats. The series is described as follows: General neuropharmacological profile: behaviour observation (excitation, bursts, sedation) after i.p. administration. Conditions: rat; for Neuropharmacological profile: different dosage levels; for Potency compared with GHB / Duration of action compared with GHB: excitatory effects. In kind it is in vivo. As for the experimental part: The tests, which were intended to evaluate the neuropharmacological activity of the amides of the invention, were conducted on rats, because most of the data available in the literature concern said animal species.
The time at which the effects started, their intensity and duration were recorded.
Molecules were evaluated by systematically using a control group, in which rats had been treated with the utilized solvent, and a positive control group, in which rats had been treated intraperitoneally (i.p.) with a standard dose of GHB sodium salt (100 mg/kg) in 2 ml. GHB and the assayed amides were administered in 50% DMSO in distilled water.
Said dose of drug, used as a reference, produced typical excitatory effects, characterized by the onset of generic excitation accompanied by more particular paroxysms, the so-called BURSTS of excitation.
Generic excitation was characterized by an increased motor activity, extremely sharp and jerky movements, higher reactivity and shakes.
“Bursts” of excitation were typical and well recognizable: the animals fought and frantically pursued each other.
Recordings concerned the number of “bursts”, the time of their onset after treatment, their intensity, the partial or total involvement of treated animals, the duration of the single episodes.
The sedation produced by higher doses of the molecules examined was evaluated analogously: time of onset, degree of sedation, partial or total involvement, duration of the effects.
Table 2—General Neuropharmacological Profile of Benzylamido Derivatives of GHB Compared With a 100 mq/kg Dose of GHB (Excitatory Dose)

For series [2] the following is noted: cited from earlier work.

For `CCCNC(=O)CCCO` [Compound 2)], the “< % (per cent decrease in motor activity)” value in series [1] (dose 300 mg/kg) is given as 82%.

For `Nc1ccc(CNC(=O)CCCO)cc1` [Compound 3)], in the series on rats, the Neuropharmacological profile result is “biphasic neuropharmacological profile” and the “Potency compared with GHB” value was “more powerful than GHB”. In the series on rats (dose 25-50 mg/kg), the “Excitatory effects Duration” value was 60 min and the “Excitatory effects Start” value is recorded as 30 min.

As to `O=C(CCCO)NCc1ccc(Cl)cc1` [Compound 4)], in the series on rats (dose 50-100 mg/kg), the “Excitatory effects Duration” value worked out at 45 min and the “Excitatory effects Start” value is 30 min. Besides, the “< % (per cent decrease in motor activity)” value in series [1] (dose 100 mg/kg) was found to be 0%. For the same molecule, the “< % (per cent decrease in motor activity)” value in series [1] (dose 300 mg/kg) turned out to be 80%.

Consider `Cc1ccc(CNC(=O)CCCO)cc1` [Compound 5)], for which, in the series on rats, the “Potency (dose) and duration of action compared with GHB” value (from here on “Potency … of action compared with GHB”) is “substantially superimposable to GHB acid”; the Neuropharmacological profile result was “biphasic neuropharmacological profile”. For the same molecule, the “Dosage required for excitatory effects” value with rats (GHB reference excitatory dose 100 mg/kg) is given as 100 mg/kg. Also, the “Excitatory effects Start” value with rats (dose 100 mg/kg) was found to be 20 min. In addition, the “< % (per cent decrease in motor activity)” value in series [1] (dose 300 mg/kg) amounted to 77%.

With `COc1ccc(CNC(=O)CCCO)cc1` [Compound 6)], in the series on rats (dose 25-50 mg/kg), the “Excitatory effects Duration” value is recorded as 45 min and the “Excitatory effects Start” value was found to be 45 min. In addition, in series [1] (dose 300 mg/kg), the “< % (per cent decrease in motor activity)” value is reported as 57%.

Turning to `COCCCC(=O)NCc1ccc(C)cc1` [Compound 7)], in the series on rats, the “Potency … of action compared with GHB” value is “better than those of GHB”; the Neuropharmacological profile entry was “biphasic neuropharmacological profile”; the “Duration of action compared with GHB” value is listed as “longer duration of action”; the “Potency compared with GHB” value was “more powerful than GHB”. Moreover, in the series with rats (dose 25-50 mg/kg), the “Excitatory effects Start” value came to 20 min. Also, the “< % (per cent decrease in motor activity)” value in series [1] (dose 100 mg/kg) is on record as 76%.

Regarding `COc1cc(CNC(=O)CCCO)cc(OC)c1` [Compound 8)], in the series with rats (dose 100 mg/kg), the “Excitatory effects Duration” value came to 30 min and the “Excitatory effects Start” value is 60 min. In addition, the “< % (per cent decrease in motor activity)” value in series [1] (dose 300 mg/kg) is on record as 68%.

As for `O=C(CCCO)NCc1cccnc1` [Compound 9)], in the series with rats (dose 100 mg/kg), the “Excitatory effects Duration” value worked out at 15 min and the “Excitatory effects Start” value is 60 min. For the same molecule, the “< % (per cent decrease in motor activity)” value in series [1] (dose 300 mg/kg) is recorded as 72%. In addition, the “< % (per cent decrease in motor activity)” value in series [1] (dose 100-200 mg/kg) came out at 0%.

Turning to `COCCCC(=O)NCc1ccccc1` [Compound 10)], in the series on rats, the Neuropharmacological profile result is listed as “biphasic neuropharmacological profile” and the “Potency compared with GHB” value is listed as “more powerful than GHB”. Besides, in the series with rats (dose 25-50 mg/kg), the “Excitatory effects Duration” value came out at 30 min and the “Excitatory effects Start” value is 20 min. Besides, in series [1] (dose 100 mg/kg), the “< % (per cent decrease in motor activity)” value came out at 42%.

As for `COCCCC(=O)NCc1ccc(Cl)cc1` [Compound 11)], in the series on rats, the Neuropharmacological profile result is reported as “biphasic neuropharmacological profile” and the “Potency compared with GHB” value is “more powerful than GHB”. Also, in the series with rats (dose 25-50 mg/kg), the “Excitatory effects Duration” value is 60 min and the “Excitatory effects Start” value came out at 20 min. In addition, in series [1] (dose 100 mg/kg), the “< % (per cent decrease in motor activity)” value is 70%.

In the case of `CCOCCCC(=O)NCc1ccc(C)cc1` [Compound 12)], in the series on rats, the Neuropharmacological profile result is “biphasic neuropharmacological profile” and the “Potency compared with GHB” value is listed as “more powerful than GHB”. Besides, in the series with rats (dose 25-50 mg/kg), the “Excitatory effects Duration” value worked out at 30 min and the “Excitatory effects Start” value was 60 min. For the same molecule, the “< % (per cent decrease in motor activity)” value in series [1] (dose 100 mg/kg) is 54.5%.

Regarding `CCCOCCCC(=O)NCc1ccc(C)cc1` [Compound 13)], the Neuropharmacological profile result in the series on rats is listed as “biphasic neuropharmacological profile”. Moreover, in the series on rats (dose 100 mg/kg), the “Excitatory effects Duration” value turned out to be 30 min and the “Excitatory effects Start” value was 45 min. For the same molecule, the “< % (per cent decrease in motor activity)” value in series [1] (dose 100 mg/kg) came out at 58%.

`COCCCC(=O)NCc1cccc2ccccc12` [Compound 14)]: in the series with rats, the “Potency … of action compared with GHB” value is listed as “better than those of GHB”; the Neuropharmacological profile entry is recorded as “biphasic neuropharmacological profile”; the “Duration of action compared with GHB” value was “longer duration of action”; the “Potency compared with GHB” value is given as “more powerful than GHB”. Also, in the series with rats (dose 25-50 mg/kg), the “Excitatory effects Duration” value was found to be 180 min and the “Excitatory effects Start” value was determined as 30 min. Moreover, the “< % (per cent decrease in motor activity)” value in series [1] (dose 50 mg/kg) was 65%. The “< % (per cent decrease in motor activity)” value in series [1] (dose 100 mg/kg) is given as 75%.

Take `COCCCC(=O)NCc1ccc(C(F)(F)F)cc1` [Compound 15)]: in the series with rats, the “Potency … of action compared with GHB” value was “better than those of GHB”; the Neuropharmacological profile entry is given as “biphasic neuropharmacological profile”; the “Duration of action compared with GHB” value is recorded as “longer duration of action”; the “Potency compared with GHB” value is “more powerful than GHB”. Further, the “Excitatory effects Start” value in the series with rats (dose 25-50 mg/kg) turned out to be 20 min. The “< % (per cent decrease in motor activity)” value in series [1] (dose 25-50 mg/kg) stood at 64%.

Turning to `O=C(O)CCCO` [GHB, γ-hydroxybutyric acid], in the series on rats (GHB reference), the “Duration of action (excitatory effects)” value is recorded as 1 h. Also, the Neuropharmacological profile result in the series with rats was “causes excitation at relatively low doses and sedation at higher doses”. For the same molecule, in series [2] (absorption by the gastroenteric apparatus), the “Maximum concentration peak, time after administration” value was 35 to 40 min. The Half-life time in series [2] (in vivo) is 20 to 25 min.

Values taken from US6770784B2, “Use of γ-hydroxybutyric acid amides in the treatment of drug addiction and in particular of alcoholism” (Laboratorio Farmaceutico C.T. S.r.l., priority 1996, dated 2004).
